# Data from ChEMBL document CHEMBL1201862, “PubChem BioAssay data set” (2004).
# The source made the active and inactive calls.
# Key:
# [1] = biological target: Neuropeptide Y receptor type 2 (Homo sapiens, UniProt P49146); assay: NPY-Y2 antagonist potency, selectivity check, dose response, counter-screen for NPY-Y1 antagonist project, cell-based (AID 1278); assay type: functional
# [2] = biological target: Neuropeptide Y receptor type 1 (Homo sapiens, UniProt P25929); assay: NPY-Y1 receptor antagonist potency, dose response, cell-based (AID 1277); assay type: functional
# Sequence of Neuropeptide Y receptor type 1 (P25929 whole entry): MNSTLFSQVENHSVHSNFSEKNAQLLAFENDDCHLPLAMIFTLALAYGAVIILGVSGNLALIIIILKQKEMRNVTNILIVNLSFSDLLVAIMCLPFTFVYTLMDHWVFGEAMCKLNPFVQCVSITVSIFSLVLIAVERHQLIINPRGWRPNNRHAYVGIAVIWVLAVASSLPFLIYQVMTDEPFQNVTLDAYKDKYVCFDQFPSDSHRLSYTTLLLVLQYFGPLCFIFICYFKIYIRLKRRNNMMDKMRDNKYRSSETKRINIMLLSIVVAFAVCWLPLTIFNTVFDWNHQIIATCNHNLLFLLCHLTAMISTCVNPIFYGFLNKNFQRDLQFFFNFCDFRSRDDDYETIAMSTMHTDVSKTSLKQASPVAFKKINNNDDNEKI
# [3] = NIH-3T3 fibroblast cytotoxicity, dose response, cytotoxicity control, cell-based, fluorescence, Alamar Blue, secondary assay (AID 2327); assay type: functional;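 note: NIH-3T3 mouse fibroblasts cultured with fluconazole at 8 µg/mL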
# [4] = biological target: T1, RNA-binding protein pos-1 (Caenorhabditis elegans, UniProt G5EF15); assay: inhibitors of POS-1/mex-3 RNA binding, dose response, biochemical, fluorescence polarization (AID 1964);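 note: purified POS-1 fused to maltose binding protein made in E. coli; potency of compounds blocking POS-1 binding to fluorescent RNA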
# T1 sequence (G5EF15 whole entry): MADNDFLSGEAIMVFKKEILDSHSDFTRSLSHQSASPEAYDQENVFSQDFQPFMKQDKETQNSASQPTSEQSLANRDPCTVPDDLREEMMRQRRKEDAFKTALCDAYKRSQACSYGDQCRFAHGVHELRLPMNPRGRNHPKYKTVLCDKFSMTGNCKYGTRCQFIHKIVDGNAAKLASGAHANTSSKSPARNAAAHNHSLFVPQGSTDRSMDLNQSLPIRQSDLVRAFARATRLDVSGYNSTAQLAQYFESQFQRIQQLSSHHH
# BJ [5] = assay: cytotoxicity toward BJ-TERT fibroblasts, dose response, cell-based, RAS-independent, luminescence (AID 1933); assay type: functional; conditions: Homo sapiens
# cells [6] = assay type: functional, cell-based
# [7] = biological target: T2, Zinc finger protein mex-5 (Caenorhabditis elegans, UniProt Q9XUB2); assay: MEX-5/TCR-2 RNA interaction inhibitors, dose response, biochemical, C. elegans, fluorescence polarization (AID 1960)
# T2 sequence (Q9XUB2 whole entry): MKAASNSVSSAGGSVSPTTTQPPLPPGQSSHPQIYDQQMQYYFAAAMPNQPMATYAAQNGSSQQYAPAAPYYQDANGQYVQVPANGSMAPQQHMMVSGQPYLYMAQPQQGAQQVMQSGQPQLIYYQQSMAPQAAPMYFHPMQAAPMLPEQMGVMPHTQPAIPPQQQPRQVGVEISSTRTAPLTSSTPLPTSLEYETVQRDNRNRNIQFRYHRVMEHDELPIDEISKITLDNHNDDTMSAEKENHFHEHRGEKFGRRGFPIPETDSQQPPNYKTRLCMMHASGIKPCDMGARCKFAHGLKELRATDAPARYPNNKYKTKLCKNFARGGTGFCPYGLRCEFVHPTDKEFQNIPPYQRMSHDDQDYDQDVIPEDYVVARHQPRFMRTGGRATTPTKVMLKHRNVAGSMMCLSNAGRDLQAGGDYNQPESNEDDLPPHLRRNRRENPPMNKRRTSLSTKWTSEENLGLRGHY
# Vero = assay: host cell cytotoxicity of antiviral hits, dose response, cytotoxicity control for West Nile virus antiviral project, secondary assay (AID 1650); assay type: functional; conditions: Chlorocebus sabaeus
# BJ [8] = assay: cells; assay type: functional, cell-based; conditions: Homo sapiens
# [9] = C. albicans growth with fluconazole, confirmation, fluorescence, retest (AID 2467); assay type: functional, cell-based
# cells [10] = assay type: functional, cell-based; remark: listed apart in the source
# BJ [11] = assay: cytotoxicity toward BJ-TERT-LT-ST fibroblasts, dose response, cell-based, RAS-independent, luminescence (AID 1935); assay type: functional; conditions: Homo sapiens;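 note: BJ fibroblasts immortalized with TERT plus LT and ST oncogenes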
# [12] = cytotoxicity toward DRD oncogenic fibroblasts, dose response, cell-based, non-viral oncogenic, luminescence (AID 1934); assay type: functional; conditions: Homo sapiens
# CHO-K1 = assay: (§1) Counterscreen for antagonists of the orexin 1 receptor (OX1R; HCRTR1): Homogeneous time resolved fluorescence (HTRF)-based cell-based dose response assay to identify antagonists of the parental CHO-K1 cell line. [Related pubchem assays (depositor defined):AID434989, AID435008, AID463079, AID485270, AID492963, AID492964, AID492965, AID493232, AID504699, AID504701]; assay type: functional; conditions: Cricetulus griseus
# [13] = as §1, with “Fluorescence-based” for “Homogeneous time resolved fluorescence (HTRF)-based”, “cell-based high throughput” for “cell-based”, “CHO” for “CHO-K1”; assay type: functional
# [14] = biological target: T3, Orexin/Hypocretin receptor type 1 (Homo sapiens, UniProt O43613); assay: Homogeneous Time Resolved Fluorescence (HTRF)-based cell-based high throughput dose response assay for antagonists of the orexin 1 receptor (OX1R; HCRTR1). [Related pubchem assays (depositor defined):AID434989, AID435008, AID463079, AID485270, AID492963, AID492964, AID492965, AID493232, AID504717, AID504718]; assay type: functional
# T3 sequence (O43613 whole entry): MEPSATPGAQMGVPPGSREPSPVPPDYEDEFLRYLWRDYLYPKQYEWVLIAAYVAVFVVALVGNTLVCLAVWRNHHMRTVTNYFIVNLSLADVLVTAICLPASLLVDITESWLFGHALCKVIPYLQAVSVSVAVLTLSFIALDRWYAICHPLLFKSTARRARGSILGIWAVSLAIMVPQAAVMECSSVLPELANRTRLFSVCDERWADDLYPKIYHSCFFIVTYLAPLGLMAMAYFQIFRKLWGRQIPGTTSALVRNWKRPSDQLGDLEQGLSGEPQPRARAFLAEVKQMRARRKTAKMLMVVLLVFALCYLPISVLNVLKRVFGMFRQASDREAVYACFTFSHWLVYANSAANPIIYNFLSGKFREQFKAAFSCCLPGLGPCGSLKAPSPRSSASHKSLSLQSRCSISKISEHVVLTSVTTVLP
# [15] = biological target: T3, Orexin/Hypocretin receptor type 1; assay: Fluorescence-based cell-based high throughput dose response assay for antagonists of the orexin 1 receptor (OX1R; HCRTR1). [Related pubchem assays (depositor defined):AID434989, AID435008, AID463079, AID485270, AID492963, AID492964, AID492965, AID493232, AID504717, AID504718]; assay type: functional
# BJ [16] = assay: cytotoxicity toward Ras-transformed BJeLR fibroblasts, dose response, cell-based, alamar blue fluorescence, cherrypicked samples (AID 2631); assay type: functional; conditions: Homo sapiens;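 note: confirmatory dose-response assay in RAS-dependent BJ fibroblasts engineered with TERT, LT and ST, with cytotoxicity read by fluorescence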
# INS1 = assay: beta cell apoptosis inhibitors, cytokine rescue, dose response, luminescence, retest (AID 449756); assay type: functional, cell-based; conditions: Rattus norvegicus;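 note: cell death triggered by IL-1 beta plus TNF-alpha plus IFN-gamma mixture; protective hits raise ATP signal compared with cytokine alone wells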
# Orexin receptor type 2 [17] = biological target: T4, Orexin receptor type 2 (Homo sapiens, UniProt O43614); assay: Counterscreen assay for antagonists of the orexin 1 receptor (OX1R; HCRTR1): Fluorescence-based cell-based dose response assay for antagonists of the orexin 2 receptor (OX2R; HCRTR2), run by assay provider.; assay type: functional
# T4 sequence (O43614 whole entry): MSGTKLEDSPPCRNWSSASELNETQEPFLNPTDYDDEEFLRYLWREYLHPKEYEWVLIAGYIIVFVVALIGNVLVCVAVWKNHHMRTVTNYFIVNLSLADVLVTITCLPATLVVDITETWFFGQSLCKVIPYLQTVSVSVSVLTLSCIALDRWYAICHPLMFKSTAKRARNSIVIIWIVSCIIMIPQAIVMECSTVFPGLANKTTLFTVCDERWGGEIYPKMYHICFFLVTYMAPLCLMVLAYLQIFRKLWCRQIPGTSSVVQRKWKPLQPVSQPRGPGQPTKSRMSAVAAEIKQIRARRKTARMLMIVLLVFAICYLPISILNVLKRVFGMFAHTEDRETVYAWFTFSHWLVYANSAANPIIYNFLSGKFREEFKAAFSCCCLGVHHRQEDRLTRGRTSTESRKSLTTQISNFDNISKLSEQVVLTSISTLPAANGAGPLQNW
# Orexin receptor type 2 [18] = biological target: T4, Orexin receptor type 2; assay: Counterscreen assay for antagonists of the orexin 1 receptor (OX1R; HCRTR1): Homogeneous Time Resolved Fluorescence (HTRF)-based cell-based dose response assay for antagonists of the orexin 2 receptor (OX2R; HCRTR2), run by assay provider.; assay type: functional
# [19] = cytotoxicity in HPDE-C7 cells, cell-based, fluorescence, HTS (AID 430); assay type: functional; conditions: Homo sapiens
# [20] = cytotoxicity in KRAS-transformed pancreatic duct cells, primary screen, cell-based, fluorescence, HTS (AID 431); assay type: functional; conditions: Homo sapiens;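 note: cell line used: HPDE-C7K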
# Estrogen receptor beta [21] = biological target: T5, Estrogen receptor beta (Homo sapiens, UniProt Q92731);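 note: recombinant ER-beta bound to coactivator SRC1 peptide in presence of estradiol agonist; inhibitors block coactivator peptide binding and lower the FRET signal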
# T5 sequence (Q92731 whole entry): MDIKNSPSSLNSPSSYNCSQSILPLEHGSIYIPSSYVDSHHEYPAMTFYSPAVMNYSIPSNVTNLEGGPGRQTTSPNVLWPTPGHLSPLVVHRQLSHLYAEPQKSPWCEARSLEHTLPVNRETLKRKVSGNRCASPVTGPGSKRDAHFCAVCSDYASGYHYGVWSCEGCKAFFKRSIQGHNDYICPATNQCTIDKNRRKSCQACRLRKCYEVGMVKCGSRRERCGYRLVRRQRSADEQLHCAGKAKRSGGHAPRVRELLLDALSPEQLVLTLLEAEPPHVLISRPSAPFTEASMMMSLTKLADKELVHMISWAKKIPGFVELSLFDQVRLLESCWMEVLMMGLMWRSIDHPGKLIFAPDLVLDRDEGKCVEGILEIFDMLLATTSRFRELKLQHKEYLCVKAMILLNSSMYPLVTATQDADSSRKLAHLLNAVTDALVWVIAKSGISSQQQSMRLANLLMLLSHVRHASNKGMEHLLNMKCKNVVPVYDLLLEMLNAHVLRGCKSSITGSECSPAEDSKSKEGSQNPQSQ
# Estrogen receptor beta [22] = biological target: T5, Estrogen receptor beta; assay: ERβ–SRC-3 coactivator interaction inhibitors, confirmation, orthogonal assay, biochemical, ELISA, streptavidin-HRP readout (AID 1060)
# [23] = inhibitors of intracellular T. cruzi replication, confirmation, NIH3T3 host cells, beta-gal luminescence (AID 2044); assay type: functional, cell-based;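 note: intracellular parasites grown in NIH/3T3 mouse fibroblasts as host cells; luminescent beta-galactosidase reporter signal from transgenic T. cruzi replicating inside host cells; inhibitors lower the luminescence signal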
# [24] = cytotoxicity toward NIH3T3 fibroblasts, dose response, counter-screen, cell-based, ATP luminescence, mouse fibroblasts (AID 2010); assay type: functional;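 note: cells exposed to compound for about 90 hours before reading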
# [25] = THP-1 cell cytotoxicity, dose response, cytotoxicity control for non-replicating M. tuberculosis project (AID 489025); assay type: functional
# [26] = biological target: T6, Microphthalmia-associated transcription factor (Homo sapiens, UniProt O75030); assay: TRPM1 promoter luciferase signal decrease, dose response, MITF inhibitor project, cell-based, SK-MEL-5, cherry-picked, set 3 (AID 493073); assay type: functional
# T6 sequence (O75030 whole entry): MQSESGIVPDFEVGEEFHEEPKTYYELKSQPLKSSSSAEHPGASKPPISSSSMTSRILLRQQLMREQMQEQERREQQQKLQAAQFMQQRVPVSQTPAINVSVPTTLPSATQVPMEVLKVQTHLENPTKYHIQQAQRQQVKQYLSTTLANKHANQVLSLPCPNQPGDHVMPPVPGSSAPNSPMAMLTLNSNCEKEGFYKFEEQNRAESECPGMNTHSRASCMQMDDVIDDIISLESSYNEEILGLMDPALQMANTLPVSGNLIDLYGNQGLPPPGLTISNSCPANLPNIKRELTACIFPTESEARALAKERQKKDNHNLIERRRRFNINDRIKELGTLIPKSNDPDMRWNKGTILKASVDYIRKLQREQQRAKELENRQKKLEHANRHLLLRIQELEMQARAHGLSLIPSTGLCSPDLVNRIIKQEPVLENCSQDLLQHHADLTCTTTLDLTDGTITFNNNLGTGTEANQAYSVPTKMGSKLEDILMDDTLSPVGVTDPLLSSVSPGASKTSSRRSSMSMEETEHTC
# cells [27] = assay type: functional
# cells [28] = assay: cells
# Estrogen receptor = Estrogen receptor (Homo sapiens, UniProt P03372);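 note: potency for inhibiting coactivator peptide recruitment to the receptor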
# Sequence of Estrogen receptor (P03372 whole entry): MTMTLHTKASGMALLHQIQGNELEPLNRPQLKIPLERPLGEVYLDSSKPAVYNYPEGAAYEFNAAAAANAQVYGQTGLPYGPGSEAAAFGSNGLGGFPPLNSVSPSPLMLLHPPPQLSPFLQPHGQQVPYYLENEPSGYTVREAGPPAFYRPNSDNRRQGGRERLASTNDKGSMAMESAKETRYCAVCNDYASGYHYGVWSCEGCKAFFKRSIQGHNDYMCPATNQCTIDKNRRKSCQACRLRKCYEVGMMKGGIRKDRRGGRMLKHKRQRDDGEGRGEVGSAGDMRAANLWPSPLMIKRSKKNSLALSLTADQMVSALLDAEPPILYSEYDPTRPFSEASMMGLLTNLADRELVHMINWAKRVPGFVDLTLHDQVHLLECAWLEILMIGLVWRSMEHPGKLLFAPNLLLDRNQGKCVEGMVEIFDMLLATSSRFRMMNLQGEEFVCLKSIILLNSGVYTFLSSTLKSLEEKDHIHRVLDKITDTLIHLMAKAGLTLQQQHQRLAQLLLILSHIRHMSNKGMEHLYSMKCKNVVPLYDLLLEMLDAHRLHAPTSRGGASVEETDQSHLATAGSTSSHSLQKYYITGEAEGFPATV
# [29] = biological target: FAD-linked sulfhydryl oxidase ALR (Homo sapiens, UniProt P55789); assay: inhibitors of human ALR sulfhydryl oxidase, dose response, biochemical, H2O2 detection, luminescence, cherry-pick (AID 493248)
# Sequence of FAD-linked sulfhydryl oxidase ALR (P55789 whole entry): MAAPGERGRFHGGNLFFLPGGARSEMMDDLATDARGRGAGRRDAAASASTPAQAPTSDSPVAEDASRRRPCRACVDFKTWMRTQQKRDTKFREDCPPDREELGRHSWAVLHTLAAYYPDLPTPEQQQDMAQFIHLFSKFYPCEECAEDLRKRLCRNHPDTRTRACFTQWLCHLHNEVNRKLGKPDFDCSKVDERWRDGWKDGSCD
# Sequence of Neuropeptide Y receptor type 2 (P49146 whole entry): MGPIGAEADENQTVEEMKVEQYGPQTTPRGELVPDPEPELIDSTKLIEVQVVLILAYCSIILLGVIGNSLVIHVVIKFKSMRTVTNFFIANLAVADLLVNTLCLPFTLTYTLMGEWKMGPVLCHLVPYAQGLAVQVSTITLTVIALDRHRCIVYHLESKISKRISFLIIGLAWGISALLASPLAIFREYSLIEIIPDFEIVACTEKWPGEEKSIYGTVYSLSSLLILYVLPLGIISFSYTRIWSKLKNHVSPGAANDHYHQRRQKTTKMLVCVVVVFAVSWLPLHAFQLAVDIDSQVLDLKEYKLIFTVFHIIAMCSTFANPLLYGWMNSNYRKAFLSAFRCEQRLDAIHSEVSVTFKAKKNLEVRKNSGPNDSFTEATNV
smiles,measurement,setting,value
Oc1ccc(-c2n[nH]cc2-c2nc3ccccc3s2)c(O)c1,IC50,[1],> 35 µM (not active)
same,IC50,[2],> 35 µM (not active)
CCN(CC)c1ccc(/C=N/NC(=O)c2ccco2)c(O)c1,EC50,[3],2.76 µM (inconclusive)
same,EC50,[4],> 300 µM (not active)
same,EC50,BJ [5],2.7 µM (inconclusive)
same,EC50,cells [6],10.3 µM (active)
same,EC50,[7],> 300 µM (not active)
same,CC50,Vero,5.13 µM (active)
same,EC50,BJ [8],3.34 µM (active)
same,EC50,[9],0.787 µM (active)
same,EC50,cells [10],9.18 µM (active)
same,EC50,BJ [11],2.66 µM (active)
same,EC50,[12],2.58 µM (active)
same,IC50,CHO-K1,> 66.3 µM (inactive)
same,IC50,[13],> 49.8 µM (inactive)
same,IC50,[14],2.83 µM (active)
same,IC50,[15],4.03 µM (active)
same,EC50,BJ [16],0.966 µM (active)
same,AC50,INS1,0.638 µM (active)
same,IC50,Orexin receptor type 2 [17],> 88.8 µM (inactive)
same,IC50,Orexin receptor type 2 [18],> 50 µM (inactive)
N#CC1=C(SCC(=O)Nc2cccc3cccnc23)NC(=O)C(C#N)C12CCCCC2 (centres undefined),EC50,[19],> 20 µM (not active)
same,EC50,[20],> 20 µM (not active)
same,IC50,Estrogen receptor beta [21],> 50 µM (not active)
same,IC50,Estrogen receptor beta [22],> 50 µM (not active)
Cc1cc(C)cc(OCC(=O)N/N=C/c2ccc([N+](=O)[O-])o2)c1,EC50,[23],< 0.1 µM (active)
same,EC50,[24],33.5 µM (active)
same,CC50,[25],31.5 µM (active)
same,AC50,[26],7.12 µM (active)
same,IC50,cells [27],2.7 µM (active)
same,EC50,cells [28],0.153 µM (active)
COC(=O)c1sc2nc(-c3ccco3)ccc2c1N,IC50,Estrogen receptor,> 50 µM (not active)
same,IC50,Estrogen receptor beta [21],34.7 µM (not active)
same,AC50,[29],2.84 µM (active)
